# Test results taken from patent US20110040086A1, “Novel Beta-Lactam Antibiotics, Methods for Their Production, and Their Use” (DRITTE PATENTPORTFOLIO BETEILIGUNGSGESELLSCHAFT MB, priority 2007, published 2011).
# Columns and labels:
# [1] = tested on: E. faecalis 945; assay: agar diffusion test (Test System II, multi-resistant germs); type: cell-based, Enterococcus faecalis; parameters: key: r = resistant (no detectable zone of inhibition)
# Outline: (§1)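 Each plate of Müller-Hinton agar II, inoculated with a saline suspension at McFarland 0.5, carried three discs loaded with 10, 50 and 100 μg of substance. Incubation was 18-20 h at 37 °C, with inhibition zones then measured.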
# [2] = tested on: S. aureus 36881; assay: as above; type: cell-based, Staphylococcus aureus; parameters: key: r = resistant (no detectable zone of inhibition)
# Outline: as §1
# [3] = tested on: S. aureus 34289; assay: as above; type: cell-based, Staphylococcus aureus; parameters: key: r = resistant (no detectable zone of inhibition)
# Outline: as §1
# [4] = tested on: S. aureus 520; assay: as above; type: cell-based, Staphylococcus aureus; parameters: key: r = resistant (no detectable zone of inhibition)
# Outline: as §1
# [5] = tested on: S. aureus 39105; assay: as above; type: cell-based, Staphylococcus aureus; parameters: key: r = resistant (no detectable zone of inhibition)
# Outline: as §1
# [6] = tested on: S. aureus 526; assay: as above; type: cell-based, Staphylococcus aureus; parameters: key: r = resistant (no detectable zone of inhibition)
# Outline: as §1
# [7] = tested on: S. aureus North Germany strain; assay: as above; type: cell-based, Staphylococcus aureus; parameters: key: r = resistant (no detectable zone of inhibition)
# Outline: as §1
# [8] = tested on: S. aureus 33490; assay: as above; type: cell-based, Staphylococcus aureus; parameters: key: r = resistant (no detectable zone of inhibition)
# Outline: as §1
# [9] = tested on: Staphylococcus aureus ATCC 6538; assay: mouse infected with Staphylococcus aureus infection model (survival); type: in vivo, BALB/c mice; details: 2 × 0.5 mg (25 mg/kg) i.p.
# Outline: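 BALB/c mice, at least 3 per group, made neutropenic with cyclophosphamide i.p. (250 mg/kg day 0, 100 mg/kg day 2). Infected i.p. on day 3 with 10 μl/g of S. aureus suspension at OD550 0.6 (ca. 10^10-10^12 CFU). Antibiotic given i.p. in PBS with 3% DMSO 30 min post-infection, then repeated; survival recorded.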
# [10] = tested on: S. aureus 38418; assay: agar diffusion test (Test System II, multi-resistant germs); type: cell-based, Staphylococcus aureus
# Outline: as §1
# [11] = tested on: S. aureus ATCC 6538; assay: as above; type: cell-based, Staphylococcus aureus
# Outline: as §1
# [12] = tested on: S. epidermidis 563; assay: as above; type: cell-based, Staphylococcus epidermidis; parameters: key: r = resistant (no detectable zone of inhibition)
# Outline: as §1
# [13] = tested on: S. epidermidis 1068; assay: as above; type: cell-based, Staphylococcus epidermidis; parameters: key: r = resistant (no detectable zone of inhibition)
# Outline: as §1
# [14] = tested on: S. epidermidis 847; assay: as above; type: cell-based, Staphylococcus epidermidis; parameters: key: r = resistant (no detectable zone of inhibition)
# Outline: as §1
# [15] = tested on: S. epidermidis 1071; assay: as above; type: cell-based, Staphylococcus epidermidis; parameters: key: r = resistant (no detectable zone of inhibition)
# Outline: as §1
# [16] = tested on: B. subtilis AWD 166; assay: agar diffusion test (antimicrobial effect); type: cell-based, Bacillus subtilis
# Outline: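 Nutrient agar seeded with B. subtilis AWD 166 to give dense non-confluent colonies; compounds in methanol or distilled water applied to discs at 10, 50, 100 μg. After 20 h at 37 °C, inhibition zone diameter measured in mm.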
molecule,measurement,setting,value
"7-{2-2-(2-hydroxyethylcarbamoyl)-3,6-dioxyocyclohexa-1,4-dienylamino]-2-(4-hydroxyphenyl)-acetylamino}-desacetoxycephalosporanic acid [1a]",Diameter of zone of inhibition,[1]; Quantity n 0.019,r
same,Diameter of zone of inhibition,[1]; Quantity n 0.1,r
same,Diameter of zone of inhibition,[1]; Quantity n 0.19,r
same,Diameter of zone of inhibition,[2]; Quantity n 0.019,r
same,Diameter of zone of inhibition,[2]; Quantity n 0.1,10 mm
same,Diameter of zone of inhibition,[2]; Quantity n 0.19,16 mm
same,Diameter of zone of inhibition,[3]; Quantity n [mol] 0.019,r
same,Diameter of zone of inhibition,[3]; Quantity n [mol] 0.1,r
same,Diameter of zone of inhibition,[3]; Quantity n [mol] 0.19,r
same,Diameter of zone of inhibition,[4]; Quantity n [mol] 0.019,r
same,Diameter of zone of inhibition,[4]; Quantity n [mol] 0.1,r
same,Diameter of zone of inhibition,[4]; Quantity n [mol] 0.19,12 mm
same,Diameter of zone of inhibition,[5]; Quantity n 0.019,r
same,Diameter of zone of inhibition,[5]; Quantity n 0.1,r
same,Diameter of zone of inhibition,[5]; Quantity n 0.19,14 mm
same,Diameter of zone of inhibition,[6]; Quantity n 0.019,r
same,Diameter of zone of inhibition,[6]; Quantity n 0.1,r
same,Diameter of zone of inhibition,[6]; Quantity n 0.19,10 mm
same,Diameter of zone of inhibition,[7]; Quantity n 0.019,r
same,Diameter of zone of inhibition,[7]; Quantity n 0.1,16 mm
same,Diameter of zone of inhibition,[7]; Quantity n 0.19,18 mm
same,Diameter of zone of inhibition,[8]; Quantity n [μmol] 0.019,r
same,Diameter of zone of inhibition,[8]; Quantity n [μmol] 0.1,14 mm
same,Diameter of zone of inhibition,[8]; Quantity n [μmol] 0.19,18 mm
same,Survival/tested mice n/n,[9],9/9
same,Diameter of zone of inhibition,[10]; Quantity n [mol] 0.019,14 mm
same,Diameter of zone of inhibition,[10]; Quantity n [mol] 0.1,24 mm
same,Diameter of zone of inhibition,[10]; Quantity n [mol] 0.19,26 mm
same,Diameter of zone of inhibition,[11]; Quantity n 0.019,20 mm
same,Diameter of zone of inhibition,[11]; Quantity n 0.1,28 mm
same,Diameter of zone of inhibition,[11]; Quantity n 0.19,30 mm
same,Diameter of zone of inhibition,[12]; Quantity n 0.019,r
same,Diameter of zone of inhibition,[12]; Quantity n 0.1,10 mm
same,Diameter of zone of inhibition,[12]; Quantity n 0.19,16 mm
same,Diameter of zone of inhibition,[13]; Quantity n 0.019,r
same,Diameter of zone of inhibition,[13]; Quantity n 0.1,10 mm
same,Diameter of zone of inhibition,[13]; Quantity n 0.19,16 mm
same,Diameter of zone of inhibition,[14]; Quantity n [mol] 0.019,r
same,Diameter of zone of inhibition,[14]; Quantity n [mol] 0.1,16 mm
same,Diameter of zone of inhibition,[14]; Quantity n [mol] 0.19,20 mm
same,Diameter of zone of inhibition,[15]; Quantity n 0.019,r
same,Diameter of zone of inhibition,[15]; Quantity n 0.1,18 mm
same,Diameter of zone of inhibition,[15]; Quantity n 0.19,20 mm
same,Diameter of zone of inhibition,[16]; Quantity n 0.019,24 mm
same,Diameter of zone of inhibition,[16]; Quantity n 0.1,30 mm
same,Diameter of zone of inhibition,[16]; Quantity n 0.19,32 mm
"7-{2-[2-(2-hydroxyethylcarbamoyl)-3,6-dioxocyclohexa-1,4-dienylamino]-2-phenyl-acetylamino}-desacetoxycephalosporanic acid [1e]",Diameter of zone of inhibition,[1]; Quantity n 0.029,r
same,Diameter of zone of inhibition,[1]; Quantity n 0.14,r
same,Diameter of zone of inhibition,[1]; Quantity n 0.29,r
same,Diameter of zone of inhibition,[2]; Quantity n 0.029,r
same,Diameter of zone of inhibition,[2]; Quantity n 0.14,r
same,Diameter of zone of inhibition,[2]; Quantity n 0.29,14 mm
same,Diameter of zone of inhibition,[3]; Quantity n [mol] 0.029,r
same,Diameter of zone of inhibition,[3]; Quantity n [mol] 0.14,r
same,Diameter of zone of inhibition,[3]; Quantity n [mol] 0.29,r
same,Diameter of zone of inhibition,[4]; Quantity n [mol] 0.029,r
same,Diameter of zone of inhibition,[4]; Quantity n [mol] 0.14,r
same,Diameter of zone of inhibition,[4]; Quantity n [mol] 0.29,r
same,Diameter of zone of inhibition,[5]; Quantity n 0.029,r
same,Diameter of zone of inhibition,[5]; Quantity n 0.14,r
same,Diameter of zone of inhibition,[5]; Quantity n 0.29,14 mm
same,Diameter of zone of inhibition,[6]; Quantity n 0.029,r
same,Diameter of zone of inhibition,[6]; Quantity n 0.14,r
same,Diameter of zone of inhibition,[6]; Quantity n 0.29,r
same,Diameter of zone of inhibition,[7]; Quantity n 0.029,r
same,Diameter of zone of inhibition,[7]; Quantity n 0.14,10 mm
same,Diameter of zone of inhibition,[7]; Quantity n 0.29,16 mm
same,Diameter of zone of inhibition,[8]; Quantity n [μmol] 0.029,8 mm
same,Diameter of zone of inhibition,[8]; Quantity n [μmol] 0.14,16 mm
same,Diameter of zone of inhibition,[8]; Quantity n [μmol] 0.29,20 mm
same,Survival/tested mice n/n,[9],3/3
same,Diameter of zone of inhibition,[10]; Quantity n [mol] 0.029,14 mm
same,Diameter of zone of inhibition,[10]; Quantity n [mol] 0.14,26 mm
same,Diameter of zone of inhibition,[10]; Quantity n [mol] 0.29,30 mm
same,Diameter of zone of inhibition,[11]; Quantity n 0.029,20 mm
same,Diameter of zone of inhibition,[11]; Quantity n 0.14,30 mm
same,Diameter of zone of inhibition,[11]; Quantity n 0.29,32 mm
same,Diameter of zone of inhibition,[12]; Quantity n 0.029,r
same,Diameter of zone of inhibition,[12]; Quantity n 0.14,18 mm
same,Diameter of zone of inhibition,[12]; Quantity n 0.29,24 mm
same,Diameter of zone of inhibition,[13]; Quantity n 0.029,r
same,Diameter of zone of inhibition,[13]; Quantity n 0.14,14 mm
same,Diameter of zone of inhibition,[13]; Quantity n 0.29,16 mm
same,Diameter of zone of inhibition,[14]; Quantity n [mol] 0.029,r
same,Diameter of zone of inhibition,[14]; Quantity n [mol] 0.14,16 mm
same,Diameter of zone of inhibition,[14]; Quantity n [mol] 0.29,20 mm
same,Diameter of zone of inhibition,[15]; Quantity n 0.029,10 mm
same,Diameter of zone of inhibition,[15]; Quantity n 0.14,18 mm
same,Diameter of zone of inhibition,[15]; Quantity n 0.29,20 mm
same,Diameter of zone of inhibition,[16]; Quantity n 0.029,22 mm
same,Diameter of zone of inhibition,[16]; Quantity n 0.14,30 mm
same,Diameter of zone of inhibition,[16]; Quantity n 0.29,32 mm
"CC1=C(C(=O)O)N2C(=O)C(NC(=O)C(NC3=C(C(N)=O)C(=O)C=CC3=O)c3ccccc3)C2SC1 (stereo not drawn) [1f, 7-[2-(2-carbamoyl-3,6-dioxocyclohexa-1,4-dienylamino)-2-phenyl-acetylamino]-desacetoxycephalosporanic acid]",Diameter of zone of inhibition,[1]; Quantity n 0.02,r
same,Diameter of zone of inhibition,[1]; Quantity n 0.1,r
same,Diameter of zone of inhibition,[1]; Quantity n 0.2,r
same,Diameter of zone of inhibition,[2]; Quantity n 0.02,r
same,Diameter of zone of inhibition,[2]; Quantity n 0.1,r
same,Diameter of zone of inhibition,[2]; Quantity n 0.2,14 mm
same,Diameter of zone of inhibition,[3]; Quantity n [mol] 0.02,r
same,Diameter of zone of inhibition,[3]; Quantity n [mol] 0.1,r
same,Diameter of zone of inhibition,[3]; Quantity n [mol] 0.2,r
same,Diameter of zone of inhibition,[4]; Quantity n [mol] 0.02,r
same,Diameter of zone of inhibition,[4]; Quantity n [mol] 0.1,r
same,Diameter of zone of inhibition,[4]; Quantity n [mol] 0.2,r
same,Diameter of zone of inhibition,[5]; Quantity n 0.02,r
same,Diameter of zone of inhibition,[5]; Quantity n 0.1,r
same,Diameter of zone of inhibition,[5]; Quantity n 0.2,12 mm
same,Diameter of zone of inhibition,[6]; Quantity n 0.02,r
same,Diameter of zone of inhibition,[6]; Quantity n 0.1,r
same,Diameter of zone of inhibition,[6]; Quantity n 0.2,r
same,Diameter of zone of inhibition,[7]; Quantity n 0.02,r
same,Diameter of zone of inhibition,[7]; Quantity n 0.1,r
same,Diameter of zone of inhibition,[7]; Quantity n 0.2,10 mm
same,Diameter of zone of inhibition,[8]; Quantity n [μmol] 0.02,r
same,Diameter of zone of inhibition,[8]; Quantity n [μmol] 0.1,14 mm
same,Diameter of zone of inhibition,[8]; Quantity n [μmol] 0.2,16 mm
same,Survival/tested mice n/n,[9],3/3
same,Diameter of zone of inhibition,[10]; Quantity n [mol] 0.02,14 mm
same,Diameter of zone of inhibition,[10]; Quantity n [mol] 0.1,24 mm
same,Diameter of zone of inhibition,[10]; Quantity n [mol] 0.2,30 mm
same,Diameter of zone of inhibition,[11]; Quantity n 0.02,20 mm
same,Diameter of zone of inhibition,[11]; Quantity n 0.1,30 mm
same,Diameter of zone of inhibition,[11]; Quantity n 0.2,34 mm
same,Diameter of zone of inhibition,[12]; Quantity n 0.02,r
same,Diameter of zone of inhibition,[12]; Quantity n 0.1,18 mm
same,Diameter of zone of inhibition,[12]; Quantity n 0.2,24 mm
same,Diameter of zone of inhibition,[13]; Quantity n 0.02,r
same,Diameter of zone of inhibition,[13]; Quantity n 0.1,12 mm
same,Diameter of zone of inhibition,[13]; Quantity n 0.2,16 mm
same,Diameter of zone of inhibition,[14]; Quantity n [mol] 0.02,r
same,Diameter of zone of inhibition,[14]; Quantity n [mol] 0.1,16 mm
same,Diameter of zone of inhibition,[14]; Quantity n [mol] 0.2,20 mm
same,Diameter of zone of inhibition,[15]; Quantity n 0.02,8 mm
same,Diameter of zone of inhibition,[15]; Quantity n 0.1,16 mm
same,Diameter of zone of inhibition,[15]; Quantity n 0.2,18 mm
same,Diameter of zone of inhibition,[16]; Quantity n 0.02,24 mm
same,Diameter of zone of inhibition,[16]; Quantity n 0.1,30 mm
same,Diameter of zone of inhibition,[16]; Quantity n 0.2,32 mm
